Experimental data published in the CheMixHub viscosity set.

Test: xn = mol fraction of the nth substance listed

Nc1cccc(Cl)c1 + CC(C)(C)O
viscosity [mPa·s], 101 kPa
Conditions | x1 = 0.0912 | x1 = 0.1842 | x1 = 0.279 | x1 = 0.3758 | x1 = 0.4745 | x1 = 0.5753 | x1 = 0.6782 | x1 = 0.7832 | x1 = 0.8904
303.15 K | 3.097 | 3.238 | 3.382 | 3.525 | 3.659 | 3.784 | 3.901 | 4.013 | 4.127
308.15 K | 2.819 | 2.953 | 3.085 | 3.213 | 3.333 | 3.445 | 3.546 | 3.644 | 3.742
313.15 K | 2.283 | 2.423 | 2.562 | 2.697 | 2.828 | 2.954 | 3.075 | 3.192 | 3.308
318.15 K | 1.875 | 2.015 | 2.153 | 2.289 | 2.419 | 2.544 | 2.665 | 2.781 | 2.899

CC(=O)CCC(=O)O + O=C(O)[C@@H]1CCCN1
100 kPa, x1 = 0.667
Conditions | viscosity [mPa·s]
303.15 K | 955
308.15 K | 636.1
313.15 K | 432.5
318.15 K | 301
323.15 K | 219.6

OC[C@@H](O)[C@@H](O)CO + OC[C@@H](O)[C@H](O)[C@@H](O)CO
101 kPa, x1 = 0.36
Conditions | viscosity [mPa·s]
313 K | 31330
318 K | 18000
323 K | 10110

CCC(=O)O + CCCCO
308.15 K, 101 kPa
Conditions | viscosity [mPa·s]
x1 = 0.0503 | 1.834
x1 = 0.1016 | 1.791
x1 = 0.1477 | 1.736
x1 = 0.1995 | 1.695
x1 = 0.301 | 1.556
x1 = 0.4 | 1.482
x1 = 0.5007 | 1.402
x1 = 0.5993 | 1.312
x1 = 0.7006 | 1.222
x1 = 0.7995 | 1.12
x1 = 0.9007 | 1.02

Nc1cccc(Cl)c1 + CCCCCCCCO
viscosity [mPa·s], 101 kPa
Conditions | x1 = 0.1441 | x1 = 0.2748 | x1 = 0.3937 | x1 = 0.5026 | x1 = 0.6025 | x1 = 0.6945 | x1 = 0.7795 | x1 = 0.8584 | x1 = 0.9317
303.15 K | 6.059 | 5.754 | 5.485 | 5.247 | 5.034 | 4.844 | 4.674 | 4.519 | 4.379
308.15 K | 5.155 | 4.924 | 4.723 | 4.547 | 4.391 | 4.253 | 4.131 | 4.02 | 3.924
313.15 K | 4.409 | 4.229 | 4.076 | 3.941 | 3.823 | 3.721 | 3.63 | 3.551 | 3.483
318.15 K | 3.856 | 3.697 | 3.564 | 3.448 | 3.347 | 3.258 | 3.181 | 3.114 | 3.06

CCC(=O)O + NC=O
viscosity [mPa·s]
Conditions | 298.15 K | 303.15 K | 308.15 K | 313.15 K
101 kPa, x2 = 0.1002 | 2.15 | – | – | 1.52
101 kPa, x2 = 0.1949 | 3.368 | – | – | 2.231
101 kPa, x2 = 0.2992 | 4.445 | – | – | 2.877
101 kPa, x2 = 0.3979 | 5.67 | – | – | 3.546
101 kPa, x2 = 0.4976 | 6.48 | – | – | 4.16
101 kPa, x2 = 0.5987 | 6.98 | – | – | 4.528
101 kPa, x2 = 0.7338 | 7.19 | – | – | 4.708
101 kPa, x2 = 0.8115 | 6.92 | – | – | 4.48
101 kPa, x2 = 0.9101 | 5.59 | – | – | 3.551
101 kPa, x2 = 0.976 | 3.838 | – | – | –
101.33 kPa, x2 = 0.0769 | 1.4 | 1.28 | 1.19 | 1.09
101.33 kPa, x2 = 0.1507 | 1.89 | 1.7 | 1.57 | 1.46
101.33 kPa, x2 = 0.2323 | 2.54 | 2.25 | 2.05 | 1.89
101.33 kPa, x2 = 0.3109 | 3.21 | 2.78 | 2.5 | 2.27
101.33 kPa, x2 = 0.393 | 3.83 | 3.28 | 2.94 | 2.64
101.33 kPa, x2 = 0.4098 | 3.92 | 3.37 | 3.01 | 2.69
101.33 kPa, x2 = 0.4649 | 4.24 | 3.62 | 3.23 | 2.89
101.33 kPa, x2 = 0.5404 | 4.48 | 3.83 | 3.41 | 3.03
101.33 kPa, x2 = 0.6138 | 4.8 | 4.06 | 3.6 | 3.2
101.33 kPa, x2 = 0.6916 | 4.7 | 4.01 | 3.57 | 3.18
101.33 kPa, x2 = 0.7633 | 4.49 | 3.84 | 3.43 | 3.07
101.33 kPa, x2 = 0.8461 | 4.22 | 3.63 | 3.26 | 2.93
101.33 kPa, x2 = 0.9226 | 3.75 | 3.25 | 2.94 | 2.66

O=C(O)c1ccccc1O + CO
viscosity [mPa·s]
Conditions | 308.15 K | 313.15 K | 318.15 K | 323.15 K
101 kPa, x1 = 0.13 | 1.049 | – | – | 0.8273
101 kPa, x1 = 0.14 | 1.086 | – | – | 0.8572
101 kPa, x1 = 0.15 | 1.118 | – | – | 0.8818
101 kPa, x1 = 0.17 | 1.262 | – | – | 0.9692
101.33 kPa, x1 = 0.13 | 1.049 | 0.9732 | 0.8932 | 0.8273
101.33 kPa, x1 = 0.15 | 1.118 | 1.036 | 0.9552 | 0.8818

Nc1ccc(S(=O)(=O)[O-])cc1.[Na+] + O
viscosity [mPa·s], 101 kPa
Conditions | x1 = 9e-05 | x1 = 0.00018 | x1 = 0.0009 | x1 = 0.0018 | x1 = 0.00448 | x1 = 0.00893 | x1 = 0.0133 | x1 = 0.0177
298.15 K | 0.899 | 0.9 | 0.915 | 0.93 | 0.984 | 1.076 | 1.174 | 1.281
318.15 K | 0.598 | 0.599 | 0.61 | 0.62 | 0.654 | 0.71 | 0.771 | 0.838

CCCCCCCCCCCCC + CCCCO
viscosity [mPa·s], 100 kPa
Conditions | x1 = 0.1001 | x1 = 0.2009 | x1 = 0.2975 | x1 = 0.3918 | x1 = 0.5054 | x1 = 0.6051 | x1 = 0.7 | x1 = 0.7984 | x1 = 0.8908
293.15 K | 2.584 | 2.319 | 2.148 | 2.004 | 1.901 | 1.841 | 1.807 | 1.788 | 1.829
298.15 K | 2.271 | 2.051 | 1.905 | 1.789 | 1.703 | 1.644 | 1.63 | 1.617 | 1.668
303.15 K | 2.006 | 1.821 | 1.701 | 1.606 | 1.535 | 1.489 | 1.48 | 1.469 | 1.522
308.15 K | 1.782 | 1.625 | 1.524 | 1.448 | 1.391 | 1.353 | 1.351 | 1.342 | 1.386
313.15 K | 1.591 | 1.459 | 1.374 | 1.312 | 1.268 | 1.246 | 1.239 | 1.231 | 1.265
318.15 K | 1.426 | 1.314 | 1.245 | 1.194 | 1.161 | 1.152 | 1.139 | 1.133 | 1.158
323.15 K | 1.283 | 1.19 | 1.132 | 1.092 | 1.066 | 1.059 | 1.052 | 1.048 | 1.068

CCCC[n+]1ccccc1.[Cl][Al-]([Cl])([Cl])[Cl] + [Al+3].[Cl-].[Cl-].[Cl-]
viscosity [mPa·s], 101 kPa
Conditions | 293.15 K | 298.15 K | 303.15 K | 308.15 K | 313.15 K | 318.15 K | 323.15 K
x2 = 0.46 | 29.8 | 26.4 | 22.8 | 19.9 | 17.6 | 15.8 | 13.8
x2 = 0.57 | 29 | 25.2 | 22.1 | 19.9 | 17.6 | 15.6 | 14.2

CCCCCCCCCCCCCC[P+](CCCCCC)(CCCCCC)CCCCCC.c1c[n-]nn1 + COCCOCCOCCOCCOC
viscosity [mPa·s], 100 kPa
Conditions | 293.15 K | 298.15 K | 303.15 K | 308.15 K | 313.15 K | 318.15 K | 323.15 K
x1 = 0.499 | 80 | 65 | 53 | – | – | – | –
x1 = 0.602 | 118 | 93 | 74 | 62 | 51 | – | –
x1 = 0.69 | 172 | 134 | 106 | 85 | 69 | 57 | –
x1 = 0.793 | 250 | 190 | 147 | 116 | 93 | 76 | 63
x1 = 0.878 | 358 | 266 | 201 | 156 | 123 | 99 | 81
x1 = 0.917 | 400 | 294 | 221 | 170 | 133 | 106 | 86

CCCCCCCCCCCCCC[P+](CCCCCC)(CCCCCC)CCCCCC.c1c[n-]nn1 + CCCCCCn1cc[n+](C)c1.O=S(=O)([N-]S(=O)(=O)C(F)(F)F)C(F)(F)F
viscosity [mPa·s], 100 kPa
Conditions | 293.15 K | 298.15 K | 303.15 K | 308.15 K | 313.15 K | 318.15 K | 323.15 K
x1 = 0.151 | 159 | 122 | 96 | 77 | 62 | 51 | –
x1 = 0.302 | 268 | 200 | 152 | 119 | 94 | 76 | 62
x1 = 0.42 | 402 | 294 | 219 | 168 | 131 | 104 | 84
x1 = 0.55 | 498 | 358 | 262 | 197 | 151 | 118 | 94
x1 = 0.652 | 614 | 437 | 317 | 236 | 180 | 139 | 109
x1 = 0.7 | 725 | 511 | 369 | 274 | 206 | 159 | 125
x1 = 0.865 | 744 | 527 | 382 | 284 | 215 | 166 | 131

O=C(O)c1ccccc1O + O
viscosity [mPa·s], 100 kPa
Conditions | x1 = 7.22e-05 | x1 = 0.000108 | x1 = 0.000143 | x1 = 0.00018 | x1 = 0.0002158 | x1 = 0.0002516
293.15 K | 1.008 | 1.011 | 1.013 | 1.015 | 1.017 | 1.019
298.15 K | 0.896 | 0.899 | 0.901 | 0.902 | 0.904 | 0.906
303.15 K | 0.803 | 0.806 | 0.807 | 0.809 | 0.81 | 0.812
308.15 K | 0.725 | 0.727 | 0.729 | 0.73 | 0.732 | 0.733
313.15 K | 0.659 | 0.661 | 0.662 | 0.664 | 0.665 | 0.666

C1C[C@@H]2[C@H]3CC[C@H](C3)[C@@H]2C1 + CCCCO
viscosity [mPa·s], 101 kPa
Conditions | x2 = 0.1697 | x2 = 0.3148 | x2 = 0.4378 | x2 = 0.5481 | x2 = 0.6472 | x2 = 0.7336 | x2 = 0.8102 | x2 = 0.8799 | x2 = 0.9439
293.15 K | 2.796 | 2.675 | 2.646 | 2.66 | 2.694 | 2.743 | 2.807 | 2.855 | 2.906
298.15 K | 2.513 | 2.397 | 2.354 | 2.355 | 2.372 | 2.416 | 2.465 | 2.505 | 2.543
303.15 K | 2.282 | 2.177 | 2.128 | 2.118 | 2.135 | 2.165 | 2.211 | 2.242 | 2.272
313.15 K | 1.882 | 1.773 | 1.708 | 1.685 | 1.682 | 1.7 | 1.719 | 1.743 | 1.766
